Data taken from patent publication US12226396B2, “Gluconic acid derivatives for use in the treatment and/or prevention of microbial infections” (GEDEA BIOTECH AB, priority 2017, dated 2025).

How the values were obtained:
Candida albicans = assay: Biofilm formation assay (crystal violet); type: cell-based; details: for normalized biofilm (% of control): 0.06 wt % acid, unbuffered, biofilm measured after 24 h; for normalized biofilm (OD560) at pH 2.6: pH 2.6, 24 h treatment; for normalized biofilm (OD560) at pH 6.1: pH 6.1, 24 h treatment
Experimental: (§1) Yeast strains (Table 1) were grown at 37° C. in complete medium YPD (0.5% yeast extract, 1% peptone, 2% glucose) or minimal medium consisting of YNB (yeast nitrogen base without amino acids and ammonium sulphate, FORMEDIUM™, CYN0505) supplemented with 0.5% ammonium sulphate, 0.2% glucose and 100 mM L-proline. If needed 2% agar was used to solidify media. The liquid minimal medium (YNB (yeast nitrogen base without amino acids and ammonium sulphate, FORMEDIUM™, CYN0505) supplemented with 0.5% ammonium sulphate, 0.2% glucose and 100 mM L-proline) was used for biofilm assay (biofilm medium).
(§2) In the experiments on the impact of pH on biofilm the pH values (from 2.6 to 6.6) were obtained using either different potassium phosphate buffers at the final concentration 0.25 M, or by the addition of citric acid, lactic acid, and gluconic acid to the biofilm medium.
(§3) Biofilm was measured in liquid culture as described [K. Scherz et al., G3 (Bethesda), 2014, 4, 1671-1680. I. Serrano-Fujarte et al. Biomed Res Int. 2015; 2015:783639] with some modifications. Prior the biofilm assay, yeast cultures were grown in liquid YPD medium for 24 hours until stationary phase (OD600 11-17)^2, cells were then pelleted by centrifugation (1699 g), washed with sterile water and cells were further inoculated into test biofilm medium (YNB (yeast nitrogen base without amino acids and ammonium sulphate) supplemented with 0.5% ammonium sulphate, 0.2% glucose and 100 mM L-proline pH7.0) at final concentration 0.2 OD600/ml and incubated in 96-well flat-bottom polystyrene microtiter plates (Sigma Aldrich, Corning® Costar® culture plates, CLS3596-50EA) for 72 hours at 37° C. thermostat. At defined time points crystal violet (HT901-8FOZ; Sigma Aldrich) was added to the media at the final concentration 0.05%, in addition total biomass was measured. After 24 hours of cells staining, plate wells were washed four times with 200 μl of water to remove planktonic cells, biofilms were then dried and dissolved in 200 μl of 96% ethanol. Total biomass and crystal violet biofilm staining measurements were performed at OD560 with FLUOstar OPTIMA plate reader, BMG LABTECH. Crystal violet biofilm measurements were normalized to the total biomass (OD560Biofilm/OD560 total biomass).
(§4) To compare the effects of different hydroxylated carboxylic acids at low concentrations, the biofilm formation was measured 24 h after addition of 0.06 wt % of glyceric acid, xylonic acid, citric acid, gluconic acid, and lactic acid, under unbuffered conditions.
In order to further evaluate the effect of gluconic acid in preventing biofilm formation, the biofilm formation at different pH were determined (as described in Example 1) for gluconic acid, lactic acid and citric acid.

Candida glabrata = assay: Biofilm formation assay (crystal violet); type: cell-based; details: for normalized biofilm (OD560) at pH 2.6: pH 2.6, 72 h treatment; for normalized biofilm (OD560) at pH 6.1: pH 6.1, 72 h treatment
Experimental: as §1, §2, §3
Candida glabrata is much more complicated to treat, compared to Candida albicans. However, a clear effect is obtained by longer treatment, i.e. 72 h with gluconic acid (Table 4).

Escherichia coli K12 = assay: E. coli biofilm study in M9 medium (crystal violet); type: cell-based; details: for effect on growth (biomass): M9 medium, 24-48 hours; for biofilm lowered: pH 6.6
Experimental: The bacterial strain Escherichia coli K12 was used for the biofilm study. This strain was maintained on LB medium at 37° C. The biofilm was studied in synthetic medium M9 (×1 M9 minimal salts (Sigma M6030), 2 mM MgSO4, 0.1 mM CaCl2, and 0.2% glucose), which contained either phosphate buffer, citric acid, lactic acid, gluconic acid or glucono-O-lactone to obtain media with different pH (2.6-6.6).
The overnight culture of E. coli K12 (OD600˜5.0) was washed with sterile water and inoculated to the final concentration 0.2 OD/ml of M9 medium with different pH of different compounds. The biofilm development was studied in 96-well flat-bottom polystyrene microtiter plates (Sigma Aldrich, Corning® Costar® culture plates, CLS3596-50EA). The biofilm was stained with crystal violet.

[1] = Resulting pH of biofilm medium after addition of hydroxylated carboxylic acid; type: physicochemical; details: 0.06% acid in biofilm medium, unbuffered
Experimental: as §4

| resulting pH [1] | SMILES | normalized biofilm (% of control) (Candida albicans) | normalized biofilm (OD560) at pH 2.6 (Candida albicans) [OD560] | normalized biofilm (OD560) at pH 6.1 (Candida albicans) [OD560] | normalized biofilm (OD560) at pH 2.6 (Candida glabrata) [OD560] | normalized biofilm (OD560) at pH 6.1 (Candida glabrata) [OD560] | effect on growth (biomass) (Escherichia coli K12) | less biofilm formation on replacing lactic acid by gluconic acid (Candida albicans; 0.06 wt %, 24 h, 6% vs 13% of control) [%] | biofilm lower compared to the phosphate medium (Escherichia coli K12; pH 2.6) [fold] | biofilm lower compared to the phosphate medium (Escherichia coli K12; pH 3.0) [fold] | biofilm lowered (Escherichia coli K12) [fold] |
| --- | --- | --- | --- | --- | --- | --- | --- | --- | --- | --- | --- |
| 4.6 | O=C(O)CC(O)(CC(=O)O)C(=O)O [citric acid] | 14 % of control | 0.34 | 4.6 | 1.0 | 2.9 | inhibiting effect on the growth | – | – | – | – |
| 7.0 | O=C(O)C(O)CO (centres unmarked) [glyceric acid] | 40 % of control | – | – | – | – | – | – | – | – | – |
| 4.9 | CC(O)C(=O)O (centres unmarked) [lactic acid] | 13 % of control | 1.6 | 3.1 | 0.9 | 2.8 | inhibiting effect on the growth | – | – | – | ~2 |
| 7.0 | O=C(O)[C@H](O)[C@@H](O)[C@H](O)CO [xylonic acid] | 31 % of control | – | – | – | – | – | – | – | – | – |

| SMILES | resulting pH [1] | normalized biofilm (% of control) (Candida albicans) | normalized biofilm (OD560) at pH 2.6 (Candida albicans) [OD560] | normalized biofilm (OD560) at pH 6.1 (Candida albicans) [OD560] | normalized biofilm (OD560) at pH 2.6 (Candida glabrata) [OD560] | normalized biofilm (OD560) at pH 6.1 (Candida glabrata) [OD560] | effect on growth (biomass) (Escherichia coli K12) | less biofilm formation on replacing lactic acid by gluconic acid (Candida albicans; 0.06 wt %, 24 h, 6% vs 13% of control) [%] | biofilm lower compared to the phosphate medium (Escherichia coli K12; pH 2.6) [fold] | biofilm lower compared to the phosphate medium (Escherichia coli K12; pH 3.0) [fold] | biofilm lowered (Escherichia coli K12) [fold] |
| --- | --- | --- | --- | --- | --- | --- | --- | --- | --- | --- | --- |
| O=C(O)[C@H](O)[C@@H](O)[C@H](O)[C@H](O)CO [gluconic acid] | 6.5 | 6 % of control | – | 0.17 | 0.07 | 1.6 | inhibiting effect on the growth | > 50 | 38 | 15 | ~2 |
